Results as given in PubChem BioAssay (NCI).
Several values for one entry are separate records, joined by “and”; a condition that tells them apart may be missing. Identical values can stand only once.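 Exposure lasted 48 hours, with cells grown in 96-well plates and compounds tested at five concentrations. The concentration for 50% growth inhibition is given as GI50. The concentration for full growth arrest is given as TGI.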 Where a SMILES comes first, the peptide text is derived from it. Bridges are numbered along the chain shown (N, C = ends). [ ]: non-standard residue; d: D form. ξ: configuration not given here. ξThr(3R) = C[C@@H](O)C(N)C(=O)O; S5 = C=CCCC[C@](C)(N)C(=O)O

Tests used:
Assay in all cases: growth of human tumour cells (NCI), 48 h
[1] = system: CAKI-1 renal
[2] = system: EKVX NSCLC
[3] = system: MOLT-4 leukemia
[4] = system: NCI-H226 lung
[5] = system: PC-3 prostate
[6] = system: SF-268 CNS
[7] = system: SF-295 CNS
[8] = system: SF-539 CNS
[9] = system: U251 CNS
[10] = system: UO-31 renal

| Structure (SMILES) | GI50 [1] | TGI [1] | GI50 [2] | TGI [2] | GI50 [3] | TGI [3] | GI50 [4] | TGI [4] | GI50 [5] | TGI [5] | GI50 [6] | TGI [6] | GI50 [7] | TGI [7] | GI50 [8] | TGI [8] | GI50 [9] | TGI [9] | TGI [10] | GI50 [10] |
| --- | --- | --- | --- | --- | --- | --- | --- | --- | --- | --- | --- | --- | --- | --- | --- | --- | --- | --- | --- | --- |
| ClCc1ccc(Cn2cnc3c(Cl)ncnc32)cc1 | 2.26 µM | 8.78 µM | 9.68 µM | 19.5 µM | 11.8 µM | > 56.2 µM | 12.7 µM | 28.6 µM | 18 µM | 56.3 µM | 6.03 µM | 16.5 µM | 5.71 µM | 19.2 µM | 10.9 µM | 29.2 µM | 6.4 µM | 15.1 µM | > 21.5 µM |  |
| Nc1cc(C(F)(F)F)c(-c2cc(N3CCOCC3)nc(N3CCOCC3)n2)cn1 | 0.441 µM and 0.806 µM | 4.05 µM and > 24.3 µM | 0.721 µM and 1.22 µM |  | 0.883 µM and 0.814 µM | > 100 µM | 0.839 µM and 0.592 µM | 4.42 µM and 4.6 µM | 0.44 µM and 0.49 µM | > 9.49 µM and 6.09 µM | 0.925 µM and 1.42 µM | > 9.53 µM and 7.1 µM | 0.463 µM and 0.613 µM | 2.51 µM and 4.26 µM | 0.976 µM and 1.39 µM | 3.42 µM and 4.35 µM | 1.51 µM and 1.78 µM | > 25 µM |  | 0.309 µM and 0.527 µM |
| Cc1ccc(Cl)cc1NC(=O)c1cc2ccccc2cc1O | 0.219 µM | 0.921 µM | 0.342 µM | 4.51 µM | 0.558 µM | 3.42 µM | 0.417 µM | 3.1 µM | 0.289 µM |  | 0.426 µM | > 32.6 µM | 1.14 µM | 3.57 µM | 0.356 µM | 1.82 µM | 0.319 µM | 4.12 µM | 1.47 µM | 0.201 µM |
| Cc1ccc(NC(=O)Nc2c(Cl)cccc2Cl)cn1 | 5.78 µM | > 100 µM | 3.04 µM | > 100 µM | 6.38 µM | 32.4 µM | > 100 µM | > 100 µM | 25.2 µM | > 100 µM | 14.5 µM | > 100 µM | 5.49 µM | > 100 µM | 5.24 µM | > 100 µM | 5.07 µM | > 100 µM | > 100 µM | 47 µM |
| COc1cccc2nc3ccccc3nc12 |  | > 100 µM |  | > 100 µM |  | > 100 µM |  | > 100 µM |  | > 100 µM |  | > 100 µM |  | > 100 µM |  | > 100 µM |  | > 100 µM | 72.3 µM |  |
| C[C@H](CS)C(=O)N1c2ccccc2C[C@H]1C(=O)O |  | > 100 µM |  | > 100 µM |  | > 100 µM |  | > 100 µM |  | > 100 µM |  | > 100 µM |  | > 100 µM |  | > 100 µM |  | > 100 µM | > 100 µM |  |
| CC(=O)N[C@H](C(=O)N[C@@H](CCCNC(=N)N)C(=O)N[C@@H](CCCCN)C(=O)N[C@@H](CCCNC(=N)N)C(=O)NC(C(=O)N[C@@H](CC(C)C)C(=O)N[C@@H](CCCNC(=N)N)C(=O)N[C@@]1(C)CCC/C=C\CCC[C@@](C)(C(=O)N[C@@H](CCCNC(=N)N)C(=O)N[C@@H](CCC(=O)O)C(=O)N[C@@H](CC(C)C)C(=O)N[C@H](C(=O)N[C@@H](CCC(=O)O)C(N)=O)C(C)C)NC(=O)[C@H](CCC(N)=O)NC(=O)[C@H](CC(C)C)NC(=O)[C@H](CC(C)C)NC1=O)[C@@H](C)O)C(C)C (stereo partly drawn) (Ac-VRKR[ξThr(3R)]LR[S5]LLQ[S5]RELVE-NH2; staple (Z) 8-12) | 3.79 µM | 10.4 µM | 6.03 µM | 14.2 µM | 9.85 µM | 22.9 µM | 5.31 µM | 14.8 µM | 7.76 µM | 15.3 µM | 2.1 µM | 8.62 µM | 4.69 µM | 12.1 µM | 2.1 µM | 7.54 µM | 2.99 µM | 10.4 µM | 17.5 µM | 9.2 µM |
| O=Cc1c(-c2ccccc2)[nH]c2ccccc2c1=O |  | > 100 µM |  | > 100 µM |  | > 100 µM |  | > 100 µM |  | > 100 µM |  | > 100 µM |  | > 100 µM |  | > 100 µM |  | > 100 µM | > 100 µM |  |
| CCN(CC)CCN1C(=O)C2C3C(=O)CC(C)(CC3C)C2C1=O (stereo unspecified) | > 100 µM | > 100 µM | > 100 µM | > 100 µM | > 100 µM | > 100 µM | > 100 µM | > 100 µM | > 100 µM | > 100 µM | > 100 µM | > 100 µM | > 100 µM | > 100 µM | > 100 µM | > 100 µM | > 100 µM | > 100 µM | > 100 µM | > 100 µM |
| Cc1ccc(-c2nc3cc(Cl)c(Cl)cc3nc2C#N)cc1 | > 100 µM | > 100 µM | > 100 µM | > 100 µM | > 100 µM | > 100 µM | > 100 µM | > 100 µM | > 100 µM | > 100 µM | > 100 µM | > 100 µM | > 100 µM | > 100 µM | > 100 µM | > 100 µM | > 100 µM | > 100 µM | > 100 µM | > 100 µM |
| CCCCCCCCCC(CCCC(O)CC(=O)O)OC1OC(COC2OC(C)C(OC(C)=O)C(O)C2O)C(O)C(O)C1OC1OC(CO)C(O)C(O)C1OC1OC(C)C(OC(=O)CC(C)C)C(O)C1O (stereo unspecified) | > 35 µM | > 35 µM | > 35 µM | > 35 µM | > 35 µM | > 35 µM | > 35 µM | > 35 µM | > 35 µM | > 35 µM | > 35 µM | > 35 µM | > 35 µM | > 35 µM | > 35 µM | > 35 µM | > 35 µM | > 35 µM | > 35 µM | > 35 µM |
| Cc1ccc(/C=C/c2c(C(=O)/C=C/c3ccc(Cl)cc3)c(C)nc3ccccc23)cc1 | 1.27 µM | 2.74 µM | 1.86 µM | 4.53 µM | 2.18 µM | > 100 µM | 1.92 µM | 3.92 µM | 2.2 µM | 6.42 µM | 2.15 µM | 5.85 µM | 1.74 µM | 3.23 µM | 1.81 µM | 3.3 µM | 1.7 µM | 3.38 µM | 2.38 µM | 1.16 µM |
